In patent US20180177766A1, “THERAPEUTIC AGENT FOR NEUROTROPHIC KERATOPATHY” (SENJU PHARMACEUTICAL CO., LTD., priority 2015, published 2018):

Key:
[1] = test system: corneal epithelial disorder in GK rats; test: Corneal epithelial disorder in spontaneously diabetic Goto-Kakizaki (GK) rat, fluorescein staining score; format: in vivo
Protocol: Male GK rats (20 rats) (Wakuta M., et al., Invest. Ophthalmol. Vis. Sci. 2007 48 590-596) purchased from CLEA Japan, Inc. were used. Corneal epithelial disorders associated with neuropathy were found in GK rats (Wang F., et al., Am J Pathol. 2012 181 2058-2066). GK rats are originated from Wistar rats and therefore, Wistar rats were used as normal control group (7 rats). The animals were bred in a breeding room set to room temperature 23° C.±3° C., humidity 55%±10% RH, 12 hr lighting (08:00 lighting, 20:00 lights-out) from the arrival to the test end date. The animals were allowed to freely ingest a solid feed (Labo MR Stock, Nosan Corporation) and freely ingest tap water, passed through a sterilizer for animal drink, from an automatic-water supply apparatus. The test was performed on an approval from the animal care and use committee based on the Act on Welfare and Management of Animals (Act No. 105 of Oct. 1, 1973, final revision: Act No. 38 of Jun. 12, 2013) and the like.
As a test substance, compound A was used. Compound A was dissolved in the vehicle (Table 2) to 0.005% and used as an ophthalmic solution. As a control group, a vehicle ophthalmic solution made solely of a vehicle (Table 2) and free of compound A was used.
GK rats were assigned to three groups of compound A ophthalmic solution administration group (4 rats) and non-administration group and vehicle ophthalmic solution administration group (8 for each group) using a statistical analysis software (SAS clinical package ver. 5.0, SAS Institute Japan), such that mean blood glucose concentration and mean corneal epithelial disorder score measured before instillation administration were uniform.
Compound A ophthalmic solution or vehicle ophthalmic solution was administered by instillation for 14 days. Instillation administration was performed 4 times per day at 10 μL/administration to both eyes with a micropipette. The administration was not performed on the non-administration group and Wistar rats.
0.1% Sodium fluoresceinate (Wako Pure Chemical Industries, Ltd.) (5 μL) was administered by instillation and fluorescein staining of the corneal epithelium was observed using a slit lamp, whereby the degree of corneal epithelial disorder was determined. To show the degree of abnormal findings in detail, one item was added to the diagnostic criteria of the McDonald-Shadduck method and used as the diagnostic criteria of the test (Table 3). The corneal epithelial disorder was scored for each of the three (upper, middle and lower) regions and the scores of the 3 regions were added up together. The corneal epithelial disorder was observed 2, 4, 6, 8, 11 and 15 days after the instillation administration.

[2] = biological target: T1, PPARδ (Homo sapiens, UniProt Q03181); conditions: method described in Example 12 of WO 2003/033493; cited from earlier work
T1 sequence (Q03181 1-441): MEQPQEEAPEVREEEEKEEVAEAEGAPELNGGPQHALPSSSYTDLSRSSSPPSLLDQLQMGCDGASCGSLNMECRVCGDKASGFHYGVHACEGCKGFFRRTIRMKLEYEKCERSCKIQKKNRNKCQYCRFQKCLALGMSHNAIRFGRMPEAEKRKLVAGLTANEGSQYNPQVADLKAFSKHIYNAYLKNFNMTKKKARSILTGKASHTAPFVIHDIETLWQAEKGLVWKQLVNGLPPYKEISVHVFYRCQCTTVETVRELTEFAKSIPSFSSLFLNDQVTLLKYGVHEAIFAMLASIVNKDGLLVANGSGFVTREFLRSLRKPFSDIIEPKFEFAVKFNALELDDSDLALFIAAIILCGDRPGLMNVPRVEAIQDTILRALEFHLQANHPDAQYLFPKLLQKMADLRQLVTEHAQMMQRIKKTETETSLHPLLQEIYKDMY

[3] = test system: corneal sensitivity of rabbit cornea after corneal flap production; test: Decrease of corneal sensitivity after corneal flap production in rabbit (Cochet-Bonnet corneal esthesiometer); format: in vivo, Japanese white rabbit; conditions: 0.005% ophthalmic solution, 50 μL instillation 4 times per day for 17 days, compared with vehicle ophthalmic solution, FIG. 2 and FIG. 3
Protocol: Male Japanese white rabbits (body weight 2.80-3.32 kg) purchased from KITAYAMA LABES Co., Ltd. were used. The animals were bred in a breeding room set to room temperature 23° C.±3° C., humidity 55%±10% RH, 12 hr lighting (08:00 lighting, 20:00 lights-out) from the arrival to the test end date. A solid feed (Labo R Stock, Nosan Corporation, 100-120 g/day) was given to the animals, and the animals were allowed to freely ingest tap water, passed through a sterilizer for animal drink, from an automatic-water supply apparatus. The test was performed on an approval from the animal care and use committee based on the Act on Welfare and Management of Animals (Act No. 105 of Oct. 1, 1973, final revision: Act No. 38 of Jun. 12, 2013) and the like.
As a test substance, [3-[2-[4-isopropyl-2-(4-trifluoromethyl)phenyl-5-thiazolyl]ethyl]-5-methyl-1,2-benzisoxazol-6-yl]oxyacetic acid (hereinafter to be referred to as compound A) was used. […]
Before production of corneal flap, the anterior ocular segment of the rabbits was macroscopically observed, and the rabbits showing no abnormality were selected. Then, using Cochet-Bonnet corneal esthesiometer (manufactured by LUNEAU), the corneal sensitivity at measurement locations 1 and 2 in FIG. 1 was measured, and the rabbits showing a corneal sensitivity threshold of not less than 15 mm at both measurement locations 1 and 2 were selected. […]

Cc1cc2c(CCc3sc(-c4ccc(C(F)(F)F)cc4)nc3C(C)C)noc2cc1OCC(=O)O [compound A, [3-[2-[4-isopropyl-2-(4-trifluoromethyl)phenyl-5-thiazolyl]ethyl]-5-methyl-1,2-benzisoxazol-6-yl]oxyacetic acid]
corneal epithelial disorder, result in words ([1]; 0.005% ophthalmic solution for 14 days, compared with non-administration and vehicle groups): improved | corneal epithelial disorder score (sum of 3 regions) ([1]; 8 days after administration, 0.005% ophthalmic solution, 10 μL 4 times per day, both eyes): 4.06 ± 0.20 | corneal epithelial disorder score (sum of 3 regions) ([1]; 11 days after administration, 0.005% ophthalmic solution, 10 μL 4 times per day, both eyes): 4.00 ± 0.13 | corneal epithelial disorder score (sum of 3 regions) ([1]; 15 days after administration, 0.005% ophthalmic solution, 10 μL 4 times per day, both eyes): 4.00 ± 0.13 | corneal epithelial disorder score (sum of 3 regions) ([1]; before administration (baseline), mean ± spread): 4.63 ± 0.33 | PPARδ agonist activity [2]: confirmed to have a PPARδ agonist activity | recovery of corneal sensitivity at measurement locations 1 and 2 after corneal flap production [3]: recovered faster
